Data from patent US11882828B2, “Mosquito vector control compositions, methods and products utilizing same” (priority 2015, dated 2024).

Legend:
Experiment in all cases: whole plant or invertebrate
[1] = test system: Aedes aegypti (Yellow fever mosquito); settings: Aedes aegypti
Procedure: […] Once the deposits were dry, five non-blood fed adult female Aedes aegypti (between two to five days old) were added to each well, and sustained with a 10% sucrose solution in a cotton wool plug. Assessment of the knockdown after 1 hour, and mortality after 48 hours was carried out.
(§1) In case of multiple tests, the mean value is reported.

[2] = test system: Anopheles stephensi (Indian malaria mosquito); settings: Anopheles stephensi
Procedure: […] Once the deposits were dry, five non-blood fed adult female Anopheles stephensi (between two to five days old) were added to each well, and sustained with a 10% sucrose solution in a cotton wool plug. Assessment of the knockdown after 1 hour, and mortality after 48 hours was carried out.
as §1

Aedes aegypti = settings: Aedes aegypti, 48 h
Procedure: (§2) The individual wells of six (6) well tissue culture plates were treated with 250 μl of an ethanol solution containing a test compound at a defined concentration. Once the deposits were dry, ten non-blood fed adult female Aedes aegypti or Anopheles stephensi (each between two to five day old) were added to each well, and sustained with a 10% sucrose solution in a cotton wool plug.
(§3) Assessment of the mortality was carried out at 48 hours.
(§4) Each treatment was replicated twice, with the mean mortality recorded.

Anopheles stephensi = settings: Anopheles stephensi, 48 h
Procedure: as §2, §3, §4

CC1(C)[C@H](C(=O)O[C@H](C#N)c2cccc(Oc3ccccc3)c2)[C@@H]1/C=C(\Cl)C(F)(F)F (racemic) [Lambda-cyhalothrin, reference compound]
pest or weed control at 2 ppm ([1]; 1 h, read-out: Knockdown): 92% | mortality at 2 ppm ([1]; 48 h): 100% | pest or weed control at 2 ppm ([2]; 1 h, read-out: Knockdown): 83% | mortality at 2 ppm ([2]; 48 h): 100% | mortality at 0.2 ppm (Aedes aegypti): 99% | mortality at 0.2 ppm (Anopheles stephensi): 84%

CO/C=C(/C(=O)OC)c1ccccc1Oc1ncc(C(C)(C)C)s1 [AA]
pest or weed control at 20 ppm ([1]; 1 h, read-out: Knockdown): 0% | mortality at 20 ppm ([1]; 48 h): 0%

C=CCOC(=O)c1cccn1/C(=C\OC)C(=O)OC [AB, reference compound]
pest or weed control at 20 ppm ([1]; 1 h, read-out: Knockdown): 60% | mortality at 20 ppm ([1]; 48 h): 100% | pest or weed control at 20 ppm ([2]; 1 h, read-out: Knockdown): 100% | mortality at 20 ppm ([2]; 48 h): 100% | mortality at 5 ppm (Aedes aegypti): 75% | mortality at 5 ppm (Anopheles stephensi): 80%

CO/C=C(/C(=O)OC)c1ccccc1COc1cccc(C(F)(F)F)n1 [AC, Picoxystrobin, reference compound]
pest or weed control at 20 ppm ([1]; 1 h, read-out: Knockdown): 0% | mortality at 20 ppm ([1]; 48 h): 40% | pest or weed control at 20 ppm ([2]; 1 h, read-out: Knockdown): 100% | mortality at 20 ppm ([2]; 48 h): 100% | mortality at 5 ppm (Aedes aegypti): 4% | mortality at 5 ppm (Anopheles stephensi): 75%

CCc1nnc(Oc2ccccc2/C(=C\OC)C(=O)OC)s1 [AD]
pest or weed control at 20 ppm ([1]; 1 h, read-out: Knockdown): 0% | mortality at 20 ppm ([1]; 48 h): 0%

CCCCO/N=C(C)/C(C)=N/OCc1ccccc1/C(=C\OC)C(=O)OC [B]
pest or weed control at 20 ppm ([1]; 1 h, read-out: Knockdown): 0% | mortality at 20 ppm ([1]; 48 h): 0%

CO/C=C(/C(=O)OC)c1ccccc1COc1cc(C(F)(F)F)nc(OC(C)C)n1 [C, Fluacrypyrim]
pest or weed control at 20 ppm ([1]; 1 h, read-out: Knockdown): 0% | mortality at 20 ppm ([1]; 48 h): 0%

CO/C=C(/C(=O)OC)c1ccccc1CO/N=C(C)/C(C)=N/OC [Compound 1]
pest or weed control at 20 ppm ([1]; 1 h, read-out: Knockdown): 50% | mortality at 20 ppm ([1]; 48 h): 90% | pest or weed control at 20 ppm ([2]; 1 h, read-out: Knockdown): 40% | mortality at 20 ppm ([2]; 48 h): 100% | mortality at 5 ppm (Aedes aegypti): 74% | mortality at 5 ppm (Anopheles stephensi): 100%

CO/C=C(/C(=O)OC)c1ccccc1Oc1nnc(C(C)(C)C)o1 [Compound 2, methyl (E)-2-[2-[(5-tert-butyl-1,3,4-oxadiazol-2-yl)oxy]phenyl]-3-methoxy-prop-2-enoate]
pest or weed control at 20 ppm ([1]; 1 h, read-out: Knockdown): 0% | mortality at 20 ppm ([1]; 48 h): 80% | pest or weed control at 20 ppm ([2]; 1 h, read-out: Knockdown): 40% | mortality at 20 ppm ([2]; 48 h): 100% | mortality at 5 ppm (Aedes aegypti): 90% | mortality at 5 ppm (Anopheles stephensi): 100%

CO/C=C(/C(=O)OC)c1ccccc1Oc1cncc(OCC(F)(F)F)n1 [Compound 3]
pest or weed control at 20 ppm ([1]; 1 h, read-out: Knockdown): 0% | mortality at 20 ppm ([1]; 48 h): 100% | pest or weed control at 20 ppm ([2]; 1 h, read-out: Knockdown): 100% | mortality at 20 ppm ([2]; 48 h): 100%

CO/C=C(/C(=O)OC)c1ccccc1Oc1cc(C(C)(C)C)ncn1 [Compound 9]
pest or weed control at 20 ppm ([1]; 1 h, read-out: Knockdown): 0% | mortality at 20 ppm ([1]; 48 h): 80% | pest or weed control at 20 ppm ([2]; 1 h, read-out: Knockdown): 100% | mortality at 20 ppm ([2]; 48 h): 100%

CO/C=C(/C(=O)OC)c1ccccc1Oc1cc(C(F)(F)F)ncn1 [Compound 11, methyl (E)-3-methoxy-2-[2-[6-(trifluoromethyl)pyrimidin-4-yl]oxyphenyl]prop-2-enoate]
pest or weed control at 20 ppm ([1]; 1 h, read-out: Knockdown): 100% | mortality at 20 ppm ([1]; 48 h): 100% | pest or weed control at 20 ppm ([2]; 1 h, read-out: Knockdown): 80% | mortality at 20 ppm ([2]; 48 h): 100%

CO/C=C(/C(=O)OC)c1ccccc1Oc1nccc(C(C)(C)C)n1 [Compound 14]
pest or weed control at 20 ppm ([1]; 1 h, read-out: Knockdown): 0% | mortality at 20 ppm ([1]; 48 h): 40% | pest or weed control at 20 ppm ([2]; 1 h, read-out: Knockdown): 0% | mortality at 20 ppm ([2]; 48 h): 100%

CO/C=C(/C(=O)OC)c1ccccc1CO/N=C(\C)c1cc(C(F)(F)F)ccn1 [Compound 15]
pest or weed control at 20 ppm ([1]; 1 h, read-out: Knockdown): 50% | mortality at 20 ppm ([1]; 48 h): 100% | pest or weed control at 20 ppm ([2]; 1 h, read-out: Knockdown): 40% | mortality at 20 ppm ([2]; 48 h): 100% | mortality at 5 ppm (Aedes aegypti): 70% | mortality at 5 ppm (Anopheles stephensi): 95%

CCCc1cccc(OCc2ccccc2/C(=C\OC)C(=O)OC)n1 [Compound 16]
pest or weed control at 20 ppm ([1]; 1 h, read-out: Knockdown): 0% | mortality at 20 ppm ([1]; 48 h): 80% | pest or weed control at 20 ppm ([2]; 1 h, read-out: Knockdown): 20% | mortality at 20 ppm ([2]; 48 h): 100% | mortality at 5 ppm (Aedes aegypti): 20% | mortality at 5 ppm (Anopheles stephensi): 95%

CO/C=C(/C(=O)OC)c1ccccc1CO/N=C(\C)c1cc(C(F)(F)C(F)(F)F)ncn1 [Compound 18]
pest or weed control at 20 ppm ([1]; 1 h, read-out: Knockdown): 0% | mortality at 20 ppm ([1]; 48 h): 40% | pest or weed control at 20 ppm ([2]; 1 h, read-out: Knockdown): 100% | mortality at 20 ppm ([2]; 48 h): 100% | mortality at 5 ppm (Aedes aegypti): 70% | mortality at 5 ppm (Anopheles stephensi): 100%

CO/C=C(/C(=O)OC)c1ccccc1Oc1ncc([N+](=O)[O-])s1 [D]
pest or weed control at 20 ppm ([1]; 1 h, read-out: Knockdown): 0% | mortality at 20 ppm ([1]; 48 h): 0%

CO/C=C(/C(=O)OC)c1ccccc1CCc1cc(C(F)(F)F)ccn1 [E]
pest or weed control at 20 ppm ([1]; 1 h, read-out: Knockdown): 0% | mortality at 20 ppm ([1]; 48 h): 0%

CO/C=C(/C(=O)OC)c1ccccc1CO/N=C(\C)c1cc(C(F)(F)F)ncn1 [G]
pest or weed control at 20 ppm ([1]; 1 h, read-out: Knockdown): 0% | mortality at 20 ppm ([1]; 48 h): 0%

CO/C=C(/C(=O)OC)c1ccccc1CO/N=C(\C)c1cccc(C(F)(F)F)n1 [H]
pest or weed control at 20 ppm ([1]; 1 h, read-out: Knockdown): 0% | mortality at 20 ppm ([1]; 48 h): 0%

CO/C=C(/C(=O)OC)c1ccccc1Oc1cc(Cl)ccn1 [I]
pest or weed control at 20 ppm ([1]; 1 h, read-out: Knockdown): 0% | mortality at 20 ppm ([1]; 48 h): 40%

CO/C=C(/C(=O)OC)c1ccccc1Oc1cc(OCC(F)(F)F)ncn1 [J]
pest or weed control at 20 ppm ([1]; 1 h, read-out: Knockdown): 0% | mortality at 20 ppm ([1]; 48 h): 0%

CCCc1nnc(Oc2ccccc2/C(=C\OC)C(=O)OC)o1 [K]
pest or weed control at 20 ppm ([1]; 1 h, read-out: Knockdown): 0% | mortality at 20 ppm ([1]; 48 h): 0%

CCC(CC)/C(C)=N/OCc1ccccc1/C(=C\OC)C(=O)OC [L]
pest or weed control at 20 ppm ([1]; 1 h, read-out: Knockdown): 0% | mortality at 20 ppm ([1]; 48 h): 0%

CO/C=C(/C(=O)OC)c1ccccc1Oc1nc(CC(C)(C)C)ns1 [M]
pest or weed control at 20 ppm ([1]; 1 h, read-out: Knockdown): 0% | mortality at 20 ppm ([1]; 48 h): 0%

CO/C=C(/C(=O)OC)c1ccccc1Oc1nccc(OC(C)(C)C)n1 [N]
pest or weed control at 20 ppm ([1]; 1 h, read-out: Knockdown): 0% | mortality at 20 ppm ([1]; 48 h): 0%

CO/C=C(/C(=O)OC)c1ccccc1Oc1ncnc(C2CC2)n1 [O]
pest or weed control at 20 ppm ([1]; 1 h, read-out: Knockdown): 0% | mortality at 20 ppm ([1]; 48 h): 0%

CO/C=C(/C(=O)OC)c1ccccc1COc1cccc(C(C)(C)C)n1 [P]
pest or weed control at 20 ppm ([1]; 1 h, read-out: Knockdown): 0% | mortality at 20 ppm ([1]; 48 h): 0%

CN/C(C)=N/OCc1ccccc1/C(=C\OC)C(=O)OC [Q]
pest or weed control at 20 ppm ([1]; 1 h, read-out: Knockdown): 0% | mortality at 20 ppm ([1]; 48 h): 0%

CO/C=C(/C(=O)OC)c1ccccc1CO/N=C(C)/C=C/c1ccc(Cl)cc1 [R, Enoxastrobin]
pest or weed control at 20 ppm ([1]; 1 h, read-out: Knockdown): 0% | mortality at 20 ppm ([1]; 48 h): 0%

CO/C=C(/C(=O)OC)c1ccccc1COc1cc(-c2ccc(Cl)cc2)nn1C [S, Pyraoxystrobin]
pest or weed control at 20 ppm ([1]; 1 h, read-out: Knockdown): 0% | mortality at 20 ppm ([1]; 48 h): 0%

CCCCc1c(C)c2ccc(OCc3ccccc3/C(=C\OC)C(=O)OC)cc2oc1=O [T, Coumoxystrobin]
pest or weed control at 20 ppm ([1]; 1 h, read-out: Knockdown): 0% | mortality at 20 ppm ([1]; 48 h): 0%

CO/C=C(/C(=O)OC)c1ccccc1COc1cc(C(F)(F)F)nc(Nc2ccc(Cl)cc2Cl)n1 [U, Pyriminostrobin]
pest or weed control at 20 ppm ([1]; 1 h, read-out: Knockdown): 0% | mortality at 20 ppm ([1]; 48 h): 0%

CO/C=C(/C(=O)OC)c1ccccc1COc1nc2cc(C(F)(F)F)ccc2nc1C(F)(F)F [V]
pest or weed control at 20 ppm ([1]; 1 h, read-out: Knockdown): 0% | mortality at 20 ppm ([1]; 48 h): 0%

CO/C=C(/C(=O)OC)c1ccccc1COc1nc2ccc(C(F)(F)F)cc2nc1C(F)(F)F [W]
pest or weed control at 20 ppm ([1]; 1 h, read-out: Knockdown): 0% | mortality at 20 ppm ([1]; 48 h): 0%

CO/C=C(/C(=O)OC)c1ccccc1COc1nccnc1C#N [X]
pest or weed control at 20 ppm ([1]; 1 h, read-out: Knockdown): 0% | mortality at 20 ppm ([1]; 48 h): 0%

CO/C=C(/C(=O)OC)c1ccccc1Oc1nnc(C(C)(C)C)s1 [Y]
pest or weed control at 20 ppm ([1]; 1 h, read-out: Knockdown): 0% | mortality at 20 ppm ([1]; 48 h): 0%

CCC(C)c1noc(Oc2ccccc2/C(=C\OC)C(=O)OC)n1 (centres unmarked) [Z]
pest or weed control at 20 ppm ([1]; 1 h, read-out: Knockdown): 0% | mortality at 20 ppm ([1]; 48 h): 0%
